Laboratory results published in US10676534B2, “Vaults engineered for hydrophobic drug delivery” (priority 2013, dated 2020).
In brackets after ≈: the same amount, converted by molar mass.

What was measured:
J-Lat 10.6 cells = assay: In vitro latent HIV activation, J-Lat 10.6 cell line assay (GFP expression); type: cell-based; settings: 50 nM, without vaults, positive control, 48 hrs, N=3, ±1 SD
Method: (§1) FIGS. 10A, 10B, and 10C: FIG. 10A) In vitro latent HIV activation using bryostatin 1 sequestered in AH1 vault complexes compared to empty vault complexes on J-Lat 10.6 cells for 48 hrs. In these assays 50 nM of byrostatin 1 (without vaults) was used as a positive control and induced GFP expression in 30.6% (±0.6%) of cells. Error bars indicate ±1 SD (N=3). NS not significant, **p<0.0001 empty vault vs. Vault+Byrostatin 1 (2-sided t-test). FIG. 10B) In vitro stimulation of CD69 HIV provirus latency activation biomarker using bryostatin 1 sequestered in AH1 vault complexes compared to empty vault complexes on primary human PBMCs for 24 hrs. Positive control stimulations with 50 nM of byrostatin 1 compound (without vaults) induced CD69 expression in 69.4% (±31.3%) of cells. Error bars indicate ±1 SD (N=4 different cell donors). […]
(§2) Bryostatin 1 is an effective HIV therapeutic as it activates latent HIV provirus that remains within cellular reservoirs. […] The bryostatin 1 sequestered within AH1 vault complex (bryostatin/AH1) was assessed in vitro and in vivo for the ability to activate latent HIV provirus. […] When tested for activity in this way, bryostatin/AH1 activated CD69 expression in primary human PBMC obtained from 4 different donors in a dose dependent manner with stimulation occurring at concentrations as low as 0.1 ng/μL AH1 vault complex as analyzed by flow cytometry (FIG. 10B).

primary human PBMCs = assay: In vitro stimulation of CD69 HIV provirus latency activation biomarker, flow cytometry; type: cell-based; settings: 50 nM, without vaults, positive control, 24 hrs, N=4 donors, ±1 SD
Method: as §1, §2

[1] = cited from earlier work

CCC/C=C/C=C/C(=O)O[C@H]1/C(=C/C(=O)OC)C[C@H]2C[C@H]([C@@H](C)O)OC(=O)C[C@H](O)C[C@@H]3C[C@H](OC(C)=O)C(C)(C)[C@](O)(C[C@@H]4C/C(=C/C(=O)OC)C[C@H](/C=C/C(C)(C)[C@]1(O)O2)O4)O3 [Bryostatin 1]
cells with induced GFP expression (J-Lat 10.6 cells): 30.6% | cells with induced CD69 expression (primary human PBMCs): 69.4%

CC1=C(/C=C/C(C)=C/C=C/C(C)=C/C(=O)O)C(C)(C)CCC1 [ATRA, All-trans Retinoic Acid]
aqueous solubility (in words) [1]: aqueous insoluble

NC(=O)c1[nH]c2ccc(Cl)cc2c1S(=O)(=O)c1ccccc1 [CSIS, 5-chloro-3-phenylsulfonylindole-2-carboxamide]
solubility in water [1]: 1.4 µg/mL (≈ 4.18 µM)

COc1cccc2c1C(=O)c1c(O)c3c(c(O)c1C2=O)C[C@@](O)(C(=O)CO)C[C@@H]3O[C@H]1C[C@H](N)[C@H](O)[C@H](C)O1 [Doxorubicin]
solubility in water [1]: over 50 mg/mL
